Reference: a compilation of properties of binary mixtures (doi:10.1021/je800965t)

Assay: xn = mol fraction of the nth substance listed
Conditions: 101 kPa

Structure (SMILES): O + CCCn1cc[n+](C)c1C.F[B-](F)(F)F
- viscosity (298.15 K, x1 = 1): 0.89 mPa·s
- viscosity (303.15 K, x1 = 1): 0.8 mPa·s
- viscosity (313.15 K, x1 = 1): 0.65 mPa·s
- viscosity (318.15 K, x1 = 1): 0.6 mPa·s
- viscosity (323.15 K, x1 = 1): 0.55 mPa·s
- viscosity (333.15 K, x1 = 1): 0.47 mPa·s
- viscosity (343.15 K, x1 = 1): 0.4 mPa·s

Structure (SMILES): CCCn1cc[n+](C)c1C.F[B-](F)(F)F + O
- viscosity (298.15 K, x2 = 0): 377 mPa·s
- viscosity (298.15 K, x2 = 0.0939): 225 mPa·s
- viscosity (298.15 K, x2 = 0.2833): 85.3 mPa·s
- viscosity (298.15 K, x2 = 0.3944): 50.6 mPa·s
- viscosity (298.15 K, x2 = 0.4987): 31.29 mPa·s
- viscosity (298.15 K, x2 = 0.5995): 19.71 mPa·s
- viscosity (298.15 K, x2 = 0.6985): 12.03 mPa·s
- viscosity (298.15 K, x2 = 0.8009): 6.69 mPa·s
- viscosity (298.15 K, x2 = 0.8988): 3.23 mPa·s
- viscosity (303.15 K, x2 = 0): 272 mPa·s
- viscosity (303.15 K, x2 = 0.0939): 168 mPa·s
- viscosity (303.15 K, x2 = 0.2833): 66.8 mPa·s
- viscosity (303.15 K, x2 = 0.5995): 16.21 mPa·s
- viscosity (303.15 K, x2 = 0.6985): 10.04 mPa·s
- viscosity (303.15 K, x2 = 0.8009): 5.67 mPa·s
- viscosity (303.15 K, x2 = 0.8988): 2.78 mPa·s
- viscosity (308.15 K, x2 = 0): 202 mPa·s
- viscosity (308.15 K, x2 = 0.0939): 127.9 mPa·s
- viscosity (308.15 K, x2 = 0.1932): 81.1 mPa·s
- viscosity (308.15 K, x2 = 0.4987): 21.07 mPa·s
- viscosity (308.15 K, x2 = 0.6985): 8.53 mPa·s
- viscosity (308.15 K, x2 = 0.8009): 4.9 mPa·s
- viscosity (308.15 K, x2 = 0.8988): 2.42 mPa·s
- viscosity (313.15 K, x2 = 0): 152 mPa·s
- viscosity (313.15 K, x2 = 0.0939): 99.3 mPa·s
- viscosity (313.15 K, x2 = 0.1932): 64.5 mPa·s
- viscosity (313.15 K, x2 = 0.2833): 43.2 mPa·s
- viscosity (313.15 K, x2 = 0.3944): 27.18 mPa·s
- viscosity (313.15 K, x2 = 0.4987): 17.63 mPa·s
- viscosity (313.15 K, x2 = 0.5995): 11.52 mPa·s
- viscosity (313.15 K, x2 = 0.6985): 7.31 mPa·s
- viscosity (313.15 K, x2 = 0.8009): 4.23 mPa·s
- viscosity (313.15 K, x2 = 0.8988): 2.14 mPa·s
- viscosity (318.15 K, x2 = 0): 117.4 mPa·s
- viscosity (318.15 K, x2 = 0.2833): 35.71 mPa·s
- viscosity (318.15 K, x2 = 0.3944): 22.79 mPa·s
- viscosity (318.15 K, x2 = 0.4987): 14.97 mPa·s
- viscosity (318.15 K, x2 = 0.5995): 9.88 mPa·s
- viscosity (318.15 K, x2 = 0.6985): 6.34 mPa·s
- viscosity (318.15 K, x2 = 0.8009): 3.71 mPa·s
- viscosity (318.15 K, x2 = 0.8988): 1.89 mPa·s
- viscosity (323.15 K, x2 = 0): 92.3 mPa·s
- viscosity (323.15 K, x2 = 0.0939): 63.3 mPa·s
- viscosity (323.15 K, x2 = 0.1932): 42.8 mPa·s
- viscosity (323.15 K, x2 = 0.2833): 29.65 mPa·s
- viscosity (323.15 K, x2 = 0.3944): 19.32 mPa·s
- viscosity (323.15 K, x2 = 0.4987): 12.87 mPa·s
- viscosity (323.15 K, x2 = 0.5995): 8.58 mPa·s
- viscosity (323.15 K, x2 = 0.6985): 5.55 mPa·s
- viscosity (323.15 K, x2 = 0.8009): 3.29 mPa·s
- viscosity (323.15 K, x2 = 0.8988): 1.69 mPa·s
- viscosity (333.15 K, x2 = 0): 60.4 mPa·s
- viscosity (333.15 K, x2 = 0.2833): 21.37 mPa·s
- viscosity (333.15 K, x2 = 0.3944): 14.38 mPa·s
- viscosity (333.15 K, x2 = 0.4987): 9.78 mPa·s
- viscosity (333.15 K, x2 = 0.8009): 2.62 mPa·s
- viscosity (333.15 K, x2 = 0.8988): 1.39 mPa·s
- viscosity (343.15 K, x2 = 0): 40.7 mPa·s
- viscosity (343.15 K, x2 = 0.1932): 21.84 mPa·s
- viscosity (343.15 K, x2 = 0.2833): 16.02 mPa·s
- viscosity (343.15 K, x2 = 0.3944): 11.04 mPa·s
- viscosity (343.15 K, x2 = 0.4987): 7.66 mPa·s
- viscosity (343.15 K, x2 = 0.5995): 5.3 mPa·s
- viscosity (343.15 K, x2 = 0.6985): 3.53 mPa·s
- viscosity (343.15 K, x2 = 0.8009): 2.15 mPa·s
- viscosity (343.15 K, x2 = 0.8988): 1.16 mPa·s
